The assay deals with T1, human HSL (Homo sapiens, UniProt Q05469).
T1 construct: overlapping PCR to generate a full length human HSL ORF with a 3′-His6 tag; His6 (C); made in house; host or cells: High 5 insect cells (baculovirus, pFast-BAC)
T1 sequence (Q05469 1-1076): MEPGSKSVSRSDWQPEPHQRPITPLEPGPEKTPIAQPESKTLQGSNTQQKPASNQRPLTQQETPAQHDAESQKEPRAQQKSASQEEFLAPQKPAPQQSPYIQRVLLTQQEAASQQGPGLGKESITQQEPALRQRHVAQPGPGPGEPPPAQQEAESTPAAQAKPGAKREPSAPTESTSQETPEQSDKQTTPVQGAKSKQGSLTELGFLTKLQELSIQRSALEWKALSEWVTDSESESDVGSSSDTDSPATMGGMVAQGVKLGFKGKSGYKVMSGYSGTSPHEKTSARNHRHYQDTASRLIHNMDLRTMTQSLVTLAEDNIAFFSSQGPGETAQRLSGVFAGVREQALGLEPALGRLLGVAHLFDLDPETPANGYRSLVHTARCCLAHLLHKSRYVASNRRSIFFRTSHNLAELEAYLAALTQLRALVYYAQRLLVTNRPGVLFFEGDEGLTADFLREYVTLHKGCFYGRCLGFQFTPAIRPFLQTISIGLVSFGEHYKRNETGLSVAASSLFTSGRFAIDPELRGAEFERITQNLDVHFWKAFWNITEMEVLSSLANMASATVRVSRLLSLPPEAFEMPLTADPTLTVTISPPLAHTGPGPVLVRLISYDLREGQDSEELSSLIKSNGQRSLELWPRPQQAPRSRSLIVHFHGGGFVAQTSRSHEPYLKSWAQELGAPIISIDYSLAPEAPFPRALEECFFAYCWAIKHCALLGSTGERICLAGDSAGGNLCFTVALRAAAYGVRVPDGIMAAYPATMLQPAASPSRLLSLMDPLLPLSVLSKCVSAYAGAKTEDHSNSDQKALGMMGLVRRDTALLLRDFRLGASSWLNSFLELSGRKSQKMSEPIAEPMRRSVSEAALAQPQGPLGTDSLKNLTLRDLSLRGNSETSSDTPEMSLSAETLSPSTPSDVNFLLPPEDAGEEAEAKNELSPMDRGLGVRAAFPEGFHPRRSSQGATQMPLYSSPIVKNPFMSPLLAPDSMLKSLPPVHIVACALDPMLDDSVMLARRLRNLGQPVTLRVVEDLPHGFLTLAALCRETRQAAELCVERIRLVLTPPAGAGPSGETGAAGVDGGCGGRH
Nature of the assay: Human Hormone-Sensitive Lipase (HSL) Enzyme Inhibition Assay. In kind it is biochemical. The following applies: colorimetric assay, 2,3-dimercapto-1-propanol tributyrate (DMPT) substrate, 37° C. for 20 minutes, absorbance at 405 nm; read-out: HSL hum IC50. The procedure, abridged: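 Colorimetric thioester hydrolysis: compounds in DMSO series mixed with DMPT (1.5 mM) in MOPS pH 7.2 with BSA, then baculovirus-expressed His6-tagged full-length human HSL added, 37° C, 20 min. DTNB plus detergents added, 15 min room temperature, absorbance at 405 nm.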
Turning to `O=C1N(c2ccc(OCC(F)(F)F)cc2)CCC12CCN(S(=O)(=O)c1ccccc1)CC2` [Example 26, 8-Benzenesulfonyl-2-[4-(2,2,2-trifluoro-ethoxy)-phenyl]-2,8-diaza-spiro[4.5]decan-1-one], the IC50 (usually the concentration that gives 50% inhibition) came out at 60 nM.

Consider `CCc1ccc(N2CCC3(CCN(C(=O)NCc4ccc(F)cc4)CC3)C2=O)cc1` [Example 260, 2-(4-Ethyl-phenyl)-1-oxo-2,8-diaza-spiro[4.5]decane-8-carboxylic acid 4-fluoro-benzylamide], for which the IC50 is 310 nM.

As for `O=C1N(c2ccc(/C=C/C3CC3)cc2)CCC12CCN(S(=O)(=O)c1ccccc1OC(F)(F)F)CC2` [Example 145, 2-[4-((E)-2-Cyclopropyl-vinyl)-phenyl]-8-(2-trifluoromethoxy-benzenesulfonyl)-2,8-diaza-spiro[4.5]decan-1-one], the IC50 turned out to be 120 nM.

In the case of `CCN(C(=O)N1CCC2(CC1)CCN(c1ccc(OC(F)(F)F)cc1)C2=O)C(C)C` [Example 304, 1-Oxo-2-(4-trifluoromethoxy-phenyl)-2,8-diaza-spiro[4.5]decane-8-carboxylic acid ethyl-isopropyl-amide], the IC50 amounted to 80 nM.

Turning to `O=C1N(c2ccc(OC3CCCC3)cc2)CCC12CCN(S(=O)(=O)c1ccccc1Cl)CC2` [Example 128, 8-(2-Chloro-benzenesulfonyl)-2-(4-cyclopentyloxy-phenyl)-2,8-diaza-spiro[4.5]decan-1-one], the IC50 turned out to be 20 nM.

With `CC(C)(O)CS(=O)(=O)N1CCC2(CCN(c3ccc(OC(F)(F)F)cc3)C2=O)CC1` [Example 212, 8-(2-Hydroxy-2-methyl-propane-1-sulfonyl)-2-(4-trifluoromethoxy-phenyl)-2,8-diaza-spiro[4.5]decan-1-one], the IC50 was determined as 200 nM.

Turning to `CCc1ccc(N2CCC3(CCN(S(=O)(=O)c4ccccc4N4CCCC4=O)CC3)C2=O)cc1` [Example 143, 2-(4-Ethyl-phenyl)-8-[2-(2-oxo-pyrrolidin-1-yl)-benzenesulfonyl]-2,8-diaza-spiro[4.5]decan-1-one], the IC50 is 170 nM.

In the case of `Cc1noc(C)c1S(=O)(=O)N1CCC2(CCN(c3ccc(C(F)(F)F)cc3)C2=O)CC1` [Example 164, 8-(3,5-Dimethyl-isoxazole-4-sulfonyl)-2-(4-trifluoromethyl-phenyl)-2,8-diaza-spiro[4.5]decan-1-one], the IC50 was found to be 280 nM.

For the compound `O=C1N(c2ccc(OC(F)(F)F)cc2)CCC12CCN(S(=O)(=O)c1cccnc1NCCO)CC2` [Example 192, 8-[2-(2-Hydroxy-ethylamino)-pyridine-3-sulfonyl]-2-(4-trifluoromethoxy-phenyl)-2,8-diaza-spiro[4.5]decan-1-one], the IC50 was determined as 40 nM.

For the compound `COc1ncccc1S(=O)(=O)N1CCC2(CCN(c3ccc(OC(F)(F)F)cc3)C2=O)CC1` [Example 194, 8-(2-Methoxy-pyridine-3-sulfonyl)-2-(4-trifluoromethoxy-phenyl)-2,8-diaza-spiro[4.5]decan-1-one], the IC50 was found to be 20 nM.

Turning to `CCc1ccc(N2CCC3(CCN(S(=O)(=O)c4ccc(C(F)(F)F)cc4Cl)CC3)C2=O)cc1` [Example 69, 8-(2-Chloro-4-trifluoromethyl-benzenesulfonyl)-2-(4-ethyl-phenyl)-2,8-diaza-spiro[4.5]decan-1-one], the IC50 was determined as 310 nM.

For `CCC(C)c1ccc(N2CCC3(CCN(S(=O)(=O)c4ccc(C)s4)CC3)C2=O)cc1` (stereo not drawn) [Example 45, 2-(4-sec-Butyl-phenyl)-8-(5-methyl-thiophene-2-sulfonyl)-2,8-diaza-spiro[4.5]decan-1-one], the IC50 came out at 60 nM.

`CCCCN(C)C(=O)N1CCC2(CC1)CCN(c1ccc(C3CC3)cc1)C2=O` [Example 314, 2-(4-Cyclopropyl-phenyl)-1-oxo-2,8-diaza-spiro[4.5]decane-8-carboxylic acid butyl-methyl-amide]: the IC50 was found to be 130 nM.

As to `O=C1N(c2ccc(C3(F)COC3)cc2)CCC12CCN(S(=O)(=O)c1ccccc1Cl)CC2` [Example 230, 8-(2-Chloro-benzenesulfonyl)-2-[4-(3-fluoro-oxetan-3-yl)-phenyl]-2,8-diaza-spiro[4.5]decan-1-one], the IC50 amounted to 30 nM.

As to `CCC(C)c1ccc(N2CCC3(CCN(S(=O)(=O)CC(C)C)CC3)C2=O)cc1` (stereo not drawn) [Example 61, 2-(4-sec-Butyl-phenyl)-8-(2-methyl-propane-1-sulfonyl)-2,8-diaza-spiro[4.5]decan-1-one], the IC50 worked out at 70 nM.

Consider `O=C1N(c2ccc(OCC(F)(F)F)nc2)CCC12CCN(S(=O)(=O)c1ccccc1)CC2` [Example 117, 8-Benzenesulfonyl-2-[6-(2,2,2-trifluoro-ethoxy)-pyridin-3-yl]-2,8-diaza-spiro[4.5]decan-1-one], for which the IC50 is 60 nM.

On to `O=C1N(Cc2ccc(OC(F)(F)F)cc2)CCC12CCN(S(=O)(=O)c1ccccc1Cl)CC2` [Example 49, 8-(2-Chloro-benzenesulfonyl)-2-(4-trifluoromethoxy-benzyl)-2,8-diaza-spiro[4.5]decan-1-one], for which the IC50 was found to be 150 nM.

Regarding `COCCOc1ccc(N2CCC3(CCN(S(=O)(=O)c4ccccc4OC(F)(F)F)CC3)C2=O)cc1` [Example 106, 2-[4-(2-Methoxy-ethoxy)-phenyl]-8-(2-trifluoromethoxy-benzenesulfonyl)-2,8-diaza-spiro[4.5]decan-1-one], the IC50 is 40 nM.

Regarding `CCc1ccc(N2CCC3(CCN(C(=O)NCCc4ccccc4)CC3)C2=O)cc1` [Example 263, 2-(4-Ethyl-phenyl)-1-oxo-2,8-diaza-spiro[4.5]decane-8-carboxylic acid phenethyl-amide], the 50% inhibitory concentration (IC50) was determined as 160 nM.

As for `O=C1N(c2ccc(OC(F)(F)F)cc2)CCC12CCN(S(=O)(=O)c1ccccn1)CC2` [Example 201, 8-(Pyridine-2-sulfonyl)-2-(4-trifluoromethoxy-phenyl)-2,8-diaza-spiro[4.5]decan-1-one], the half-maximal inhibitory concentration (IC50) came out at 50 nM.

Take `CCC(C)Oc1ccc(N2CCC3(CCN(S(=O)(=O)CC(C)C)CC3)C2=O)cc1` (stereo not drawn) [Example 85, 2-(4-sec-Butoxy-phenyl)-8-(2-methyl-propane-1-sulfonyl)-2,8-diaza-spiro[4.5]decan-1-one]: the IC50 stood at 100 nM.

With `Cc1noc(C)c1S(=O)(=O)N1CCC2(CCN(c3ccc(C(O)C(F)(F)F)cc3)C2=O)CC1` (racemic) [Example 162, (rac)-8-(3,5-Dimethyl-isoxazole-4-sulfonyl)-2-[4-(2,2,2-trifluoro-1-hydroxy-ethyl)-phenyl]-2,8-diaza-spiro[4.5]decan-1-one], the IC50 is 120 nM.

Consider `O=C1N(c2cc(C(F)(F)F)ccc2Cl)CCC12CCN(S(=O)(=O)c1ccccc1Cl)CC2` [Example 154, 8-(2-Chloro-benzenesulfonyl)-2-(2-chloro-5-trifluoromethyl-phenyl)-2,8-diaza-spiro[4.5]decan-1-one], for which the IC50 amounted to 210 nM.

Turning to `CS(=O)(=O)Oc1ccc(N2CCC3(CCN(S(=O)(=O)c4ccccc4OC(F)(F)F)CC3)C2=O)cc1` [Example 56, Methanesulfonic acid 4-[1-oxo-8-(2-trifluoromethoxy-benzenesulfonyl)-2,8-diaza-spiro[4.5]dec-2-yl]-phenyl ester], the IC50 turned out to be 20 nM.

Consider `CC(Oc1ccc(N2CCC3(CCN(S(=O)(=O)CC(C)(C)C)CC3)C2=O)cc1)C(F)(F)F` (racemic) [Example 22, (rac)-8-(2,2-Dimethyl-propane-1-sulfonyl)-2-[4-(2,2,2-trifluoro-1-methyl-ethoxy)-phenyl]-2,8-diaza-spiro[4.5]decan-1-one], for which the IC50 came to 130 nM.

As to `CCN(C(=O)N1CCC2(CC1)CCN(c1ccc(OC(F)(F)F)cc1)C2=O)c1ccc(OC(F)(F)F)cc1` [Example 311, 1-Oxo-2-(4-trifluoromethoxy-phenyl)-2,8-diaza-spiro[4.5]decane-8-carboxylic acid ethyl-(4-trifluoromethoxy-phenyl)-amide], the IC50 is 60 nM.

On to `CC(C)CS(=O)(=O)N1CCC2(CCN(c3ccc(OC(F)(F)F)cc3)C2=O)CC1` [Example 18, 8-(2-Methyl-propane-1-sulfonyl)-2-(4-trifluoromethoxy-phenyl)-2,8-diaza-spiro[4.5]decan-1-one], for which the IC50 stood at 80 nM.
